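96-well plates; 48 h exposure; 5 concentrations. Endpoints by linear interpolation between flanking doses. Not reached: highest tested concentration assigned. GI50 is the concentration that inhibits growth by half.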 The source made the active and inactive calls. No stated cut-off is given here; in the data, active = GI50 up to about 1.1 µM and inactive = higher.
Experiments:
Assay in all cases: NCI tumour cell line growth inhibition, 48 h
CCRF-CEM = test system: CCRF-CEM
NCI-H460 = test system: NCI-H460
HT-29 = test system: HT-29
SK-OV-3 = test system: SK-OV-3
MDA-MB-435 = test system: MDA-MB-435
A498 = test system: A498
PC-3 = test system: PC-3
T47D = test system: T47D
M14 = test system: M14
LOX IMVI = test system: LOX IMVI
DU-145 = test system: DU-145
SNB-19 = test system: SNB-19
SNB-75 = test system: SNB-75
DMS-114 = test system: DMS-114
SNB-78 = test system: SNB-78
M19-MEL = test system: M19-MEL
DLD-1 = test system: DLD-1
DMS-273 = test system: DMS-273
HOP-18 = test system: HOP-18
ACHN = test system: ACHN

## O=c1ccn(COC(COCc2ccccc2)COCc2ccccc2)c(=O)[nH]1
CCRF-CEM
  GI50: > 100 µM (inactive)
NCI-H460
  GI50: > 100 µM (inactive)
HT-29
  GI50: > 100 µM (inactive)
SK-OV-3
  GI50: > 100 µM (inactive)
MDA-MB-435
  GI50: > 100 µM (inactive)
A498
  GI50: > 100 µM (inactive)
PC-3
  GI50: 77.6 µM (inactive)
T47D
  GI50: 64.1 µM (inactive)
M14
  GI50: > 100 µM (inactive)
LOX IMVI
  GI50: > 100 µM (inactive)
DU-145
  GI50: > 100 µM (inactive)
SNB-19
  GI50: > 100 µM (inactive)
SNB-75
  GI50: > 100 µM (inactive)

## O=C(/C=N/c1ccccc1S)c1ccco1
DMS-114
  GI50: 15.3 µM (inactive)
SNB-78
  GI50: 16.9 µM (inactive)
M19-MEL
  GI50: 12.2 µM (inactive)
CCRF-CEM
  GI50: 3.14 µM (inactive)
DLD-1
  GI50: 6.56 µM (inactive)
HT-29
  GI50: 13.3 µM (inactive)
DMS-273
  GI50: 11.2 µM (inactive)
HOP-18
  GI50: 17.7 µM (inactive)
SNB-19
  GI50: 4.74 µM (inactive)

## COc1cc(/C=C/C(=O)Oc2ccc(NC(C)=O)cc2)ccc1C(=O)O/C=C/c1ccccc1
DMS-114
  GI50: > 100 µM (inactive)
SNB-78
  GI50: > 100 µM (inactive)
M19-MEL
  GI50: > 100 µM (inactive)
CCRF-CEM
  GI50: > 100 µM (inactive)
NCI-H460
  GI50: > 100 µM (inactive)
DLD-1
  GI50: > 100 µM (inactive)
HT-29
  GI50: > 100 µM (inactive)
SK-OV-3
  GI50: > 100 µM (inactive)
DMS-273
  GI50: > 100 µM (inactive)
A498
  GI50: > 100 µM (inactive)
HOP-18
  GI50: > 100 µM (inactive)
LOX IMVI
  GI50: > 100 µM (inactive)
SNB-19
  GI50: > 100 µM (inactive)
SNB-75
  GI50: > 100 µM (inactive)

## CCOC(=O)NC(Nc1ncccn1)(C(=O)OCC)C(F)(F)F (stereo not drawn)
CCRF-CEM
  GI50: > 100 µM (inactive)
NCI-H460
  GI50: > 100 µM (inactive)
HT-29
  GI50: > 100 µM (inactive)
ACHN
  GI50: > 100 µM (inactive)
SK-OV-3
  GI50: > 10 µM (inactive)
MDA-MB-435
  GI50: > 100 µM (inactive)
PC-3
  GI50: > 100 µM (inactive)
T47D
  GI50: 56 µM (inactive)
M14
  GI50: > 100 µM (inactive)
LOX IMVI
  GI50: > 100 µM (inactive)
DU-145
  GI50: > 100 µM (inactive)
SNB-19
  GI50: > 100 µM (inactive)
SNB-75
  GI50: > 100 µM (inactive)

## O=C=C=P(c1ccccc1)(c1ccccc1)c1ccccc1
DMS-114
  GI50: 22.8 µM (inactive)
SNB-78
  GI50: 39.7 µM (inactive)
M19-MEL
  GI50: 27.1 µM (inactive)
CCRF-CEM
  GI50: 76 µM (inactive)
NCI-H460
  GI50: 86.9 µM (inactive)
DLD-1
  GI50: > 100 µM (inactive)
ACHN
  GI50: > 100 µM (inactive)
SK-OV-3
  GI50: 48.3 µM (inactive)
DMS-273
  GI50: 36.9 µM (inactive)
M14
  GI50: 80.5 µM (inactive)
HOP-18
  GI50: 21.6 µM (inactive)
LOX IMVI
  GI50: 40.1 µM (inactive)
SNB-19
  GI50: > 100 µM (inactive)
SNB-75
  GI50: 23.5 µM (inactive)

## O=c1[nH]c(-c2ccc(Cl)cc2)cc2ccsc12
NCI-H460
  GI50: 4.74 µM (inactive)
HT-29
  GI50: 4.07 µM (inactive)
ACHN
  GI50: 6.03 µM (inactive)
SK-OV-3
  GI50: 4.9 µM (inactive)
MDA-MB-435
  GI50: 0.453 µM (active)
PC-3
  GI50: 8.83 µM (inactive)
T47D
  GI50: 2.37 µM (inactive)
M14
  GI50: 3.48 µM (inactive)
LOX IMVI
  GI50: 4.36 µM (inactive)
DU-145
  GI50: 2.05 µM (inactive)
SNB-19
  GI50: 2.49 µM (inactive)
SNB-75
  GI50: 3.66 µM (inactive)

## COc1ccc(C[C@H](N)C(=O)N2C[C@H](CO)C[C@H](n3ccc(=O)[nH]c3=O)C2)cc1
DMS-114
  GI50: > 100 µM (inactive)
M19-MEL
  GI50: > 100 µM (inactive)
CCRF-CEM
  GI50: > 100 µM (inactive)
NCI-H460
  GI50: > 100 µM (inactive)
DLD-1
  GI50: > 100 µM (inactive)
HT-29
  GI50: > 100 µM (inactive)
ACHN
  GI50: > 100 µM (inactive)
SK-OV-3
  GI50: > 100 µM (inactive)
DMS-273
  GI50: > 100 µM (inactive)
M14
  GI50: > 100 µM (inactive)
HOP-18
  GI50: > 100 µM (inactive)
LOX IMVI
  GI50: > 100 µM (inactive)
SNB-19
  GI50: > 100 µM (inactive)

## O=C1c2ccccc2C(=O)N1CC(O)COc1cccc2ccccc12 (stereo not drawn)
CCRF-CEM
  GI50: > 100 µM (inactive)
NCI-H460
  GI50: > 100 µM (inactive)
HT-29
  GI50: > 100 µM (inactive)
ACHN
  GI50: 76.4 µM (inactive)
SK-OV-3
  GI50: > 100 µM (inactive)
MDA-MB-435
  GI50: > 100 µM (inactive)
A498
  GI50: 73.5 µM (inactive)
PC-3
  GI50: > 100 µM (inactive)
T47D
  GI50: > 10 µM (inactive)
M14
  GI50: > 100 µM (inactive)
LOX IMVI
  GI50: > 100 µM (inactive)
DU-145
  GI50: > 100 µM (inactive)
SNB-19
  GI50: > 100 µM (inactive)

## CC(=O)OC1CCC2(C)C(CCC3C2CCC2(C)C(c4ccc(=O)oc4)C(OC(C)=O)CC32O)C1 (stereo not drawn)
SNB-78
  GI50: 0.0164 µM (active)
CCRF-CEM
  GI50: 0.0151 µM (active)
NCI-H460
  GI50: 0.0147 µM (active)
DLD-1
  GI50: 0.0155 µM (active)
HT-29
  GI50: 0.0263 µM (active)
SK-OV-3
  GI50: 0.0292 µM (active)
DMS-273
  GI50: 0.0125 µM (active)
A498
  GI50: 0.0156 µM (active)
HOP-18
  GI50: 0.0125 µM (active)
LOX IMVI
  GI50: 0.0176 µM (active)
SNB-19
  GI50: 0.0293 µM (active)
SNB-75
  GI50: 0.0183 µM (active)

Reference: ChEMBL document CHEMBL1201862, “PubChem BioAssay data set” (2004)
